Measured values reported in patent US20230019236A1, “PROTEIN TYROSINE PHOSPHATASE INHIBITORS AND METHODS OF USE THEREOF” (Calico Life Sciences LLC, priority 2019, published 2023).
Like-named read-outs stand apart in the source and are kept apart here.

Key:
[1] = molecular target: T1, His tagged full-length PTP1B protein (Homo sapiens, UniProt P18031); assay: Mobility Shift Assay (MSA) used to determine potency of PTP1B inhibitors; type: biochemical; settings: Table 2
T1 construct: made in house
T1 sequence (P18031 with tags, fused parts or gaps): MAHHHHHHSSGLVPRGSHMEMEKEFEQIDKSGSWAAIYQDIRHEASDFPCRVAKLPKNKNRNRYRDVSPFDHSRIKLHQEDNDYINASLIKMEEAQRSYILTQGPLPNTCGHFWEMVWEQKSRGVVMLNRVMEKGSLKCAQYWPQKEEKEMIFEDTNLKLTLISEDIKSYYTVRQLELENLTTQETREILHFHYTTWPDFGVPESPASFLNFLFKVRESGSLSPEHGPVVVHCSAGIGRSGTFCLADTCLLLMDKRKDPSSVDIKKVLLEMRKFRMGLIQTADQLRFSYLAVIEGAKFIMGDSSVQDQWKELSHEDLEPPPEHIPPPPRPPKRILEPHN
Experimental: The enzymatic assay used to determine activity is a mobility shift assay using a LabChip EZ Reader by Caliper Life Sciences. The enzymatic reaction was carried out in assay buffer (50 mM HEPES pH 7.5, 1 mM EGTA, 10 mM EDTA, 0.01% Tween® 20, and 2 mM DTT). […] The enzyme (at 0.5 nM) was incubated with compound for 10 minutes at room temperature. […] The % inhibition was then used to calculate the IC50 values.

[2] = test system: B16F10 mouse melanoma cells; assay: B16F10 IFNγ-induced cellular growth inhibition assay; type: cell-based; settings: for inhibition at 33 µM: Mus musculus, B16-F10, compound 33 μM, Table 3
Experimental: Example 294: B16F10 IFNγ-Induced Cellular Growth Inhibition Assay
B16F10 mouse melanoma cells (ATCC Cat# CRL-6475, Manassas, Va.) were seeded at a density of 500 cells per well in a 384-well clear bottom plate (Corning Cat#3765, Corning, N.Y.) in 25 μL total volume of DMEM+10% FBS (Sigma Cat# D6429 and Sigma Cat# F4135, St. Louis, MO). Cells were allowed to adhere overnight at 37° C. +5% CO2. On the following day, 12.5 μL of mouse IFNγ (RD systems Cat# 485-MI/CF, Minneapolis, Minn.) was added to half of the plate (columns 13-24) at a concentration of 2 ng/mL for a final assay concentration of 0.5 ng/mL of IFNγ. Media only (12.5 μL of DMEM+10% FBS) was added to the remainder of the plate (columns 1-12). Next, compounds resuspended in DMSO (Sigma Cat# D2650) at 100 mM were diluted in semi-log dilutions in DMSO ranging from 100 mM to 0.001 mM and DMSO only controls were included. The compound/DMSO dilutions were further diluted 1:250 in DMEM+10% FBS, and 12.5 μL of these dilutions were added in triplicates to cells of both treatment arms (with and without IFNγ). Final compound concentrations ranged from 100 μM to 0.001 μM with a final DMSO concentration of 0.1%. Compounds were only dosed in the inner 240 wells, avoiding the outer 2-well perimeter of the plate to minimize edge effects. Finally, the plate was loaded into an IncuCyte® S3 Live Cell Analysis System (Essen Bioscience-Sartorius, Ann Arbor, Mich.) maintained in a 37° C. +5% CO2 incubator, allowed to equilibrate for 2 hours, and imaged every 6 hours for 5 days. Confluence over time for compound dilutions in the presence and absence of IFNγ was measured. Growth inhibition values were obtained when the “DMSO/no IFNγ” control reached confluence >95%. At these time points, the percent growth inhibition of each compound at the indicated concentration was calculated relative to the “DMSO/with IFNγ” control.

[3] = molecular target: T2, His tagged PTPN2 (TC45) protein (Homo sapiens, UniProt P17706); assay: Mobility Shift Assay used to determine potency of PTPN2 inhibitors; type: biochemical; settings: Table 2; read-out: PTPN2 MSA IC50
T2 construct: made in house
T2 sequence (P17706 with tags, fused parts or gaps isoform P17706-2): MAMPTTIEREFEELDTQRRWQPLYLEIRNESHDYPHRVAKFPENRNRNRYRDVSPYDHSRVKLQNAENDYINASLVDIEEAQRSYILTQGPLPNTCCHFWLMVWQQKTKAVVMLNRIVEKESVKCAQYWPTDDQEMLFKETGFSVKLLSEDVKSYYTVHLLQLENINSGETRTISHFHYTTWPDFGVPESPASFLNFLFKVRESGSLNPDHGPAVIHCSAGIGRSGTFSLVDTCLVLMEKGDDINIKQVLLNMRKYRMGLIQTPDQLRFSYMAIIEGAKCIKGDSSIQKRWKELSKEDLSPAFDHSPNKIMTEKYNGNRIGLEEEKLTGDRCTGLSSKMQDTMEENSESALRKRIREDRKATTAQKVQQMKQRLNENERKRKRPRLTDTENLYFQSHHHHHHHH
How it was run: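 His-tagged human PTPN2 (TC45), 0.5 nM, preincubated 10 min RT with compound (12-point, 1:3 dilution) in HEPES pH 7.5 buffer with EDTA/DTT; 2 µM OG488-labelled phospho-insulin-receptor peptide added, 10 min RT, then quenched. Dephosphorylation read by microfluidic mobility shift (ex 488/em 530 nm); IC50 from % inhibition.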

[4] = test system: Pan T cells isolated from C57BL6 splenocytes; assay: T cell activation assay (CD25/CD69 flow cytometry); type: cell-based, mouse; settings: with TCR stimulation; Table 5
Experimental: Example 295: T cell activation and function assays
Pan T cells were isolated from C57BL6 splenocytes using a MACS Pan T cell isolation kit II (Miltenyi Biotec, Auburn, Calif.) according to the manufacturer's instructions. Isolated T cells (200,000 cells/well in a 96 well flat-bottom plate) were cultured in RPMI 1640 supplemented with 10% FBS, […] 2-mercatoethanol, 100 U/mL penicillin, and 100 μg/mL streptomycin, and incubated with the indicated concentration of compound or DMSO in duplicates. After 1 hour, mouse T cell activator CD3/CD28 Dynabeads (ThermoFisher Scientific, Waltham, Mass.) were added at a 1:5 beads to cells ratio to stimulate the T cells for 2 or 3 days as outlined below. T cells with or without compound were incubated in the absence of T cell activator beads (media only) as control.
After 2 days of stimulation, activation status of T cells was assessed by flow cytometry. T cells were first subjected to Zombie Violet™ Fixable Viability dye (BioLegend, San Diego, Calif.) for dead cell exclusion, washed and then stained with BUV805 labeled anti-CD8, APC-R700 labeled anti-CD25 (both from BD Biosciences, San Jose, Calif.) and PE labeled anti-CD69 (BioLegend, San Diego, Calif.) antibodies. After staining, cells were fixed with 2% paraformaldehyde and acquired on a BD LSRFortessa™ X-20 flow cytometer (BD Biosciences, San Jose, Calif.) using BD FACSDiva™ software. Data was analyzed using FlowJo V10 (Flow Jo LLC, Ashland, OR). Dead cells were excluded and frequencies of activated CD8 T cells was reported as the frequency of CD25+ or CD69+ cells within the CD8+ population. The expression level of CD25 and CD69 indicates the activation status of cells on a per cell basis and was evaluated by the mean fluorescence intensities (MFI) of CD25 and CD69.

[5] = test system: MC-38 murine colon adenocarcinoma; assay: In vivo efficacy in MC38 syngeneic tumor model; settings: 300 mg/kg/dose oral BID for 21 days
Experimental: All experiments were conducted in compliance with AbbVie's Institutional Animal Care and Use Committee and the National Institutes of Health Guide for Care and Use of Laboratory Animals guidelines in a facility accredited by the Association for the Assessment and Accreditation of Laboratory Animal Care. […] The mice were group-housed 10 per cage. Food and water were available ad libitum. Animals were acclimated to the animal facilities for a period of at least one week prior to commencement of experiments. Animals were tested in the light phase of a 12-hour light:12-hour dark schedule (lights on 0600 hours).
Cells were grown to passage 3 in vitro. […] The injection volume was 0.1 mL and was composed of a 1:1 mixture of S-MEM and Matrigel® (Corning, N.Y., USA). […] Following size match, treatments were initiated on the same day. […] Compound 124 was formulated in 5% DMSO, 5% Tween 80 (Polysorbate 80), 20% PEG-400 and 70% D5W (5% dextrose in water) and was dosed at 10 mL/kg. […] Tumor volume was calculated three times weekly. Measurements of the length (L) and width (W) of the tumor were taken via electronic caliper and the volume was calculated according to the following equation: V=L×W^2/2 using Study Director Version 3.1.399.22 (Studylog Systems, Inc, CA, USA). […] Reported TGIMax is the largest TGI value for any timepoint that tumors volumes were collected for that treatment group.

[6] = +0.5 ng/mL IFNγ, relative to DMSO/with IFNγ control, read-out: % B16F10 growth inhibition (+0.5 ng/mL IFNγ) @ 33 μM
[7] = no IFNγ, read-out: % B16F10 growth inhibition (no IFNγ) @ 33 μM

Row | Structure (SMILES) | IC50 [1] [nM] | inhibition at 33 µM [2, 6] [%] | inhibition at 33 µM [2, 7] [%] | IC50 [3] [nM] | T cell activation and T cell function [4] | tolerability [5] | growth inhibition in the absence of IFNγ ([2]; absence of IFNγ)
1 | CP(C)(=O)N1CC=C(c2ccc3cc(O)c(N4CC(=O)NS4(=O)=O)c(F)c3c2)C1 [Compound 168, 5-{7-[1-(dimethylphosphoryl)-2,5-dihydro-1H-pyrrol-3-yl]-1-fluoro-3-hydroxynaphthalen-2-yl}-1λ^6,2,5-thiadiazolidine-1,1,3-trione] | 1 to 10 | > 90 | < 25 | – | – | – | –
2 | CC(C)NC(=O)Oc1ccc2cc(O)c(N3CC(=O)NS3(=O)=O)c(F)c2c1 [Compound 103, 8-fluoro-6-hydroxy-7-(1,1,4-trioxo-1λ^6,2,5-thiadiazolidin-2-yl)naphthalen-2-yl propan-2-ylcarbamate] | 10 to 100 | 60 to 90 | < 25 | – | – | – | –
3 | O=C1CN(c2c(O)cc3ccc(CC4CCN(S(=O)(=O)C5CC5)CC4)cc3c2F)S(=O)(=O)N1 [Compound 257, 5-(7-{[1-(cyclopropanesulfonyl)piperidin-4-yl]methyl}-1-fluoro-3-hydroxynaphthalen-2-yl)-1λ^6,2,5-thiadiazolidine-1,1,3-trione] | 10 to 100 | 25 to 59 | < 25 | 1 to 10 | – | – | –
4 | O=C1CN(c2c(O)cc3ccc(OC(F)F)cc3c2F)S(=O)(=O)N1 [Compound 260, 5-[7-(difluoromethoxy)-1-fluoro-3-hydroxynaphthalen-2-yl]-1λ^6,2,5-thiadiazolidine-1,1,3-trione] | 10 to 100 | – | – | – | increased both T cell activation and T cell function | – | –
5 | CC(C)(O)CCOc1ccc2cc(O)c(N3CC(=O)NS3(=O)=O)c(F)c2c1 [Compound 182, 5-[1-fluoro-3-hydroxy-7-(3-hydroxy-3-methylbutoxy)naphthalen-2-yl]-1λ^6,2,5-thiadiazolidine-1,1,3-trione] | – | – | – | – | increased both T cell activation and T cell function | well tolerated, without obvious adverse health events | –
6 | CC(C)(O)CCCc1ccc2cc(O)c(N3CC(=O)NS3(=O)=O)c(F)c2c1 [Compound 154, 5-[1-fluoro-3-hydroxy-7-(4-hydroxy-4-methylpentyl)naphthalen-2-yl]-1λ^6,2,5-thiadiazolidine-1,1,3-trione] | 1 to 10 | 60 to 90 | < 25 | < 1 | – | – | –
7 | O=C1CN(c2c(O)cc3ccc(C4=CCN(S(=O)(=O)C5CC5)C4)cc3c2F)S(=O)(=O)N1 [Compound 113, 5-{7-[1-(cyclopropanesulfonyl)-2,5-dihydro-1H-pyrrol-3-yl]-1-fluoro-3-hydroxynaphthalen-2-yl}-1λ^6,2,5-thiadiazolidine-1,1,3-trione] | < 1 | – | – | – | increased both T cell activation and T cell function | – | –
8 | COc1ccc2cc(O)c(N3CC(=O)NS3(=O)=O)c(F)c2c1 [Compound 124, 5-(1-fluoro-3-hydroxy-7-methoxynaphthalen-2-yl)-1λ^6,2,5-thiadiazolidine-1,1,3-trione] | 1 to 10 | – | – | – | increased both T cell activation and T cell function | well tolerated, without obvious adverse health events | no observed growth inhibition
9 | CC(C)(C)OC(=O)NCCOc1ccc2c(F)c(N3CC(=O)NS3(=O)=O)c(O)cc2c1 [Compound 336, tert-butyl (2-{[5-fluoro-7-hydroxy-6-(1,1,4-trioxo-1λ^6,2,5-thiadiazolidin-2-yl)naphthalen-2-yl]oxy}ethyl)carbamate] | 10 to 100 | – | – | 10 to 100 | – | – | –
10 | COc1cc2c(F)c(N3CC(=O)NS3(=O)=O)c(O)cc2cc1O [Compound 357, 5-(1-fluoro-3,6-dihydroxy-7-methoxynaphthalen-2-yl)-1λ^6,2,5-thiadiazolidine-1,1,3-trione] | 1 to 10 | – | – | 1 to 10 | – | – | –
11 | O=C1CN(c2c(O)cc3cc(OCCCC(F)F)ccc3c2F)S(=O)(=O)N1 [Compound 340, 5-[6-(4,4-difluorobutoxy)-1-fluoro-3-hydroxynaphthalen-2-yl]-1λ^6,2,5-thiadiazolidine-1,1,3-trione] | 10 to 100 | – | – | 10 to 100 | – | – | –
